From PubChem BioAssay (NCI)
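All cell lines were grown in 96-well plates and treated with compound for 48 hours. Abbreviation: GI50, concentration required for 50% inhibition of growth. At the TGI there is no net growth.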

How the values were obtained:
Assay in all cases: NCI tumour cell line growth inhibition, 48 h
786-0 renal = tested on: 786-0 renal
A498 renal = tested on: A498 renal
A549 NSCLC = tested on: A549 NSCLC
ACHN renal = tested on: ACHN renal
BT-549 breast = tested on: BT-549 breast
CAKI-1 renal = tested on: CAKI-1 renal
CCRF-CEM leukemia = tested on: CCRF-CEM leukemia
COLO 205 colon = tested on: COLO 205 colon
DU-145 prostate = tested on: DU-145 prostate
EKVX NSCLC = tested on: EKVX NSCLC
HCC-2998 colon = tested on: HCC-2998 colon
HCT-116 colon = tested on: HCT-116 colon
HCT-15 colon = tested on: HCT-15 colon
HL-60(TB) leukemia = tested on: HL-60(TB) leukemia
HOP-62 NSCLC = tested on: HOP-62 NSCLC
HOP-92 NSCLC = tested on: HOP-92 NSCLC
HS 578T breast = tested on: HS 578T breast
HT29 colon = tested on: HT29 colon
IGROV1 ovarian = tested on: IGROV1 ovarian
K-562 leukemia = tested on: K-562 leukemia
KM12 colon = tested on: KM12 colon
LOX IMVI melanoma = tested on: LOX IMVI melanoma
M14 melanoma = tested on: M14 melanoma
MALME-3M melanoma = tested on: MALME-3M melanoma
MCF7 breast = tested on: MCF7 breast
MDA-MB-231 breast = tested on: MDA-MB-231 breast
MDA-MB-435 = tested on: MDA-MB-435
MOLT-4 leukemia = tested on: MOLT-4 leukemia
NCI-H226 lung = tested on: NCI-H226 lung
NCI-H23 lung = tested on: NCI-H23 lung
NCI-H460 lung = tested on: NCI-H460 lung
NCI-H522 lung = tested on: NCI-H522 lung
NCI/ADR-RES ovarian = tested on: NCI/ADR-RES ovarian
OVCAR-3 ovarian = tested on: OVCAR-3 ovarian
OVCAR-4 ovarian = tested on: OVCAR-4 ovarian
OVCAR-5 ovarian = tested on: OVCAR-5 ovarian
OVCAR-8 ovarian = tested on: OVCAR-8 ovarian
PC-3 prostate = tested on: PC-3 prostate
RPMI-8226 leukemia = tested on: RPMI-8226 leukemia
RXF 393 renal = tested on: RXF 393 renal
SF-268 CNS = tested on: SF-268 CNS
SF-295 CNS = tested on: SF-295 CNS
SF-539 CNS = tested on: SF-539 CNS
SK-MEL-2 melanoma = tested on: SK-MEL-2 melanoma
SK-MEL-28 melanoma = tested on: SK-MEL-28 melanoma
SK-MEL-5 melanoma = tested on: SK-MEL-5 melanoma
SK-OV-3 ovarian = tested on: SK-OV-3 ovarian
SN12C renal = tested on: SN12C renal
SNB-19 CNS = tested on: SNB-19 CNS
SNB-75 CNS = tested on: SNB-75 CNS
SR leukemia = tested on: SR leukemia
SW-620 colon = tested on: SW-620 colon
T-47D breast = tested on: T-47D breast
TK-10 renal = tested on: TK-10 renal
U251 CNS = tested on: U251 CNS
UACC-257 melanoma = tested on: UACC-257 melanoma
UACC-62 melanoma = tested on: UACC-62 melanoma
UO-31 renal = tested on: UO-31 renal
MDA-N = tested on: MDA-N

COc1ccc(CNC(=O)c2ccc(-c3cc(-c4nnc(C)o4)ccc3C)cc2)cc1
GI50 (786-0 renal): > 25 µM
TGI (786-0 renal): > 25 µM
GI50 (A498 renal): 8.22 µM
TGI (A498 renal): > 25 µM
GI50 (A549 NSCLC): 22.8 µM
TGI (A549 NSCLC): > 25 µM
GI50 (ACHN renal): 16.3 µM
TGI (ACHN renal): > 25 µM
GI50 (BT-549 breast): 13.3 µM
TGI (BT-549 breast): > 25 µM
GI50 (CAKI-1 renal): 19.5 µM
TGI (CAKI-1 renal): > 25 µM
GI50 (CCRF-CEM leukemia): > 25 µM
TGI (CCRF-CEM leukemia): > 25 µM
GI50 (COLO 205 colon): > 22.9 µM
TGI (COLO 205 colon): > 25 µM
GI50 (DU-145 prostate): > 25 µM
TGI (DU-145 prostate): > 25 µM
GI50 (EKVX NSCLC): 7.68 µM
TGI (EKVX NSCLC): > 25 µM
GI50 (HCC-2998 colon): > 25 µM
TGI (HCC-2998 colon): > 25 µM
GI50 (HCT-116 colon): 14.6 µM
TGI (HCT-116 colon): > 25 µM
GI50 (HCT-15 colon): 19.9 µM
TGI (HCT-15 colon): > 25 µM
GI50 (HL-60(TB) leukemia): > 18.5 µM
TGI (HL-60(TB) leukemia): > 25 µM
GI50 (HOP-62 NSCLC): 17.5 µM
TGI (HOP-62 NSCLC): > 25 µM
GI50 (HOP-92 NSCLC): 2.11 µM
TGI (HOP-92 NSCLC): > 25 µM
GI50 (HS 578T breast): > 25 µM
TGI (HS 578T breast): > 25 µM
GI50 (HT29 colon): > 25 µM
TGI (HT29 colon): > 25 µM
GI50 (IGROV1 ovarian): > 22.6 µM
TGI (IGROV1 ovarian): > 25 µM
GI50 (K-562 leukemia): 11.2 µM
TGI (K-562 leukemia): > 25 µM
GI50 (KM12 colon): > 25 µM
TGI (KM12 colon): > 25 µM
GI50 (LOX IMVI melanoma): > 25 µM
TGI (LOX IMVI melanoma): > 25 µM
GI50 (M14 melanoma): > 25 µM
TGI (M14 melanoma): > 25 µM
GI50 (MALME-3M melanoma): 5.37 µM
TGI (MALME-3M melanoma): > 25 µM
GI50 (MCF7 breast): 9.86 µM
TGI (MCF7 breast): > 25 µM
GI50 (MDA-MB-231 breast): > 25 µM
TGI (MDA-MB-231 breast): > 25 µM
GI50 (MDA-MB-435): 10.6 µM
TGI (MDA-MB-435): > 25 µM
GI50 (MOLT-4 leukemia): 15.6 µM
TGI (MOLT-4 leukemia): > 25 µM
GI50 (NCI-H226 lung): > 20.4 µM
TGI (NCI-H226 lung): > 25 µM
GI50 (NCI-H23 lung): 17.4 µM
TGI (NCI-H23 lung): > 25 µM
GI50 (NCI-H460 lung): > 25 µM
TGI (NCI-H460 lung): > 25 µM
GI50 (NCI-H522 lung): > 20.2 µM
TGI (NCI-H522 lung): > 25 µM
GI50 (NCI/ADR-RES ovarian): 16.1 µM
TGI (NCI/ADR-RES ovarian): > 25 µM
GI50 (OVCAR-3 ovarian): 17.1 µM
TGI (OVCAR-3 ovarian): > 25 µM
GI50 (OVCAR-4 ovarian): 6.8 µM
TGI (OVCAR-4 ovarian): > 25 µM
GI50 (OVCAR-5 ovarian): > 25 µM
TGI (OVCAR-5 ovarian): > 25 µM
GI50 (OVCAR-8 ovarian): > 25 µM
TGI (OVCAR-8 ovarian): > 25 µM
GI50 (PC-3 prostate): 19.2 µM
TGI (PC-3 prostate): > 25 µM
GI50 (RPMI-8226 leukemia): 12.6 µM
TGI (RPMI-8226 leukemia): > 25 µM
GI50 (RXF 393 renal): > 25 µM
TGI (RXF 393 renal): > 25 µM
GI50 (SF-268 CNS): 21 µM
TGI (SF-268 CNS): > 25 µM
GI50 (SF-295 CNS): 7.6 µM
TGI (SF-295 CNS): > 25 µM
GI50 (SF-539 CNS): > 25 µM
TGI (SF-539 CNS): > 25 µM
GI50 (SK-MEL-2 melanoma): > 25 µM
TGI (SK-MEL-2 melanoma): > 25 µM
GI50 (SK-MEL-28 melanoma): > 25 µM
TGI (SK-MEL-28 melanoma): > 25 µM
GI50 (SK-MEL-5 melanoma): 6.17 µM
TGI (SK-MEL-5 melanoma): > 19.9 µM
GI50 (SK-OV-3 ovarian): > 25 µM
TGI (SK-OV-3 ovarian): > 25 µM
GI50 (SN12C renal): > 25 µM
TGI (SN12C renal): > 25 µM
GI50 (SNB-19 CNS): > 22.8 µM
TGI (SNB-19 CNS): > 25 µM
GI50 (SNB-75 CNS): 14.2 µM
TGI (SNB-75 CNS): > 25 µM
GI50 (SR leukemia): > 25 µM
TGI (SR leukemia): > 25 µM
GI50 (SW-620 colon): > 25 µM
TGI (SW-620 colon): > 25 µM
GI50 (T-47D breast): 7.01 µM
TGI (T-47D breast): > 25 µM
GI50 (TK-10 renal): > 25 µM
TGI (TK-10 renal): > 25 µM
GI50 (U251 CNS): > 25 µM
TGI (U251 CNS): > 25 µM
GI50 (UACC-257 melanoma): 12.8 µM
TGI (UACC-257 melanoma): > 25 µM
GI50 (UACC-62 melanoma): 11.1 µM
TGI (UACC-62 melanoma): > 25 µM
GI50 (UO-31 renal): 6.03 µM
TGI (UO-31 renal): > 25 µM

O=C1C2=C(Nc3cc([N+](=O)[O-])ccc3N2)OC1c1ccc(C2OC3=C(Nc4ccc([N+](=O)[O-])cc4N3)C2=O)cc1 (stereo not drawn)
GI50 (COLO 205 colon): 19.7 µM
TGI (COLO 205 colon): 45.1 µM
GI50 (HCT-116 colon): 79.9 µM
GI50 (HL-60(TB) leukemia): 0.184 µM
TGI (HL-60(TB) leukemia): 1.09 µM
GI50 (HT29 colon): 98.9 µM
GI50 (K-562 leukemia): 19.1 µM
GI50 (KM12 colon): 26.1 µM
GI50 (MCF7 breast): 53.3 µM
GI50 (MDA-MB-435): 22.1 µM
TGI (MDA-MB-435): 53.4 µM
GI50 (MDA-N): 42.8 µM
GI50 (MOLT-4 leukemia): 22 µM
GI50 (NCI-H522 lung): 6.12 µM
GI50 (OVCAR-3 ovarian): 37.5 µM
GI50 (RPMI-8226 leukemia): 53.6 µM
GI50 (SF-268 CNS): 64.9 µM
GI50 (SF-295 CNS): 23.3 µM
TGI (SF-295 CNS): 77.3 µM
GI50 (SK-MEL-2 melanoma): 63.3 µM
GI50 (SK-MEL-28 melanoma): 41.8 µM
GI50 (SK-MEL-5 melanoma): 38.9 µM
GI50 (SR leukemia): 19.4 µM
GI50 (T-47D breast): 48 µM
GI50 (UACC-257 melanoma): 28 µM
TGI (UACC-257 melanoma): 96.8 µM
GI50 (UACC-62 melanoma): 30.4 µM
